From ChEMBL document CHEMBL4049382, “4-Hydroxyphenylpyruvate Dioxygenase and Its Inhibition in Plants and Animals: Small Molecules as Herbicides and Agents for the Treatment of Human Inherited Diseases” (J Med Chem, 2017) come the findings set out here.

The structures appear in SMILES notation.

For data set [1], the target named is T1, 4-hydroxyphenylpyruvate dioxygenase (Arabidopsis thaliana, UniProt P93836).
T1 sequence (P93836 whole entry): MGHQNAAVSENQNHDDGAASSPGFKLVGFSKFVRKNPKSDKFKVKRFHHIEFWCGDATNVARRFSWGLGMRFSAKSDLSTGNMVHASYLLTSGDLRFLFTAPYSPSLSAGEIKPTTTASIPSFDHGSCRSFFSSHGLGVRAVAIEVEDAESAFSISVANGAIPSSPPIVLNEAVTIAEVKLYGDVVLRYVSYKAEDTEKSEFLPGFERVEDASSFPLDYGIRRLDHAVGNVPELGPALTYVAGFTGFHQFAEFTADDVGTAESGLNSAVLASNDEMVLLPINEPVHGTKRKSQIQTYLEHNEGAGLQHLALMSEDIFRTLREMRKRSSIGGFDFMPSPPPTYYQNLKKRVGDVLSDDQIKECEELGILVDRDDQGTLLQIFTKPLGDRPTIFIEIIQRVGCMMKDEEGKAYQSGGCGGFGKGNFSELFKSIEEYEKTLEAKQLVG
Put plainly: Inhibition of Arabidopsis thaliana HPPD expressed in Escherichia coli JM105 using 4-HPP as substrate preincubated for 15 mins followed by substrate addition measured after 15 mins by HPLC analysis.

For data set [2], the target named is T1, 4-hydroxyphenylpyruvate dioxygenase. Put plainly: Inhibition of Arabidopsis thaliana HPPD expressed in Escherichia coli BL21(DE3) using HPPA as substrate after 10 mins by UV-Vis spectrometric analysis.
Data set [3] deals with T2, 4-hydroxyphenylpyruvate dioxygenase (Arabidopsis thaliana) (UniProt P93836).
T2 sequence (whole entry): T1 sequence (P93836 whole entry)
As to the kind of experiment: Inhibition of Arabidopsis thaliana HPPD.

Data set [4] concerns the target T3, 4-hydroxyphenylpyruvate dioxygenase (Sus scrofa, UniProt Q02110). As to the kind of experiment: Inhibition of pig liver HPPD using 4-hydroxyphenylpyruvic acid as substrate after 15 mins by spectrophotometric analysis.
The test system of data set [5] is Rattus norvegicus. As to the kind of experiment: In vivo inhibition of Tyr hydroxylase in rat assessed as tyr concentration in plasma by colorimetric assay (reference value: 0.1 mM). Format: functional.
The test system of data set [6] is Homo sapiens. As to the kind of experiment: In vivo inhibition of HPPD in human assessed dissociation half life for enzyme-compound complex in plasma. Format: functional, organism-based.
In data set [7] the test system is Homo sapiens. Put plainly: Effect on tyrosine level in plasma in human at 1 mg/kg, po under uncontrolled diet (reference value: 0.076 mM). The note with it: in vivo. Format: ADME, organism-based.
Data set [8] deals with 4-hydroxyphenylpyruvate dioxygenase (Rattus norvegicus) (UniProt P32755). Particulars: Wistar, 50 nM.
Description: Inhibition of Wistar rat liver HPPD using 4-Hydroxyphenylpyruvate as substrate assessed as reduction in oxygen consumption at 50 nM preincubated for 3 mins followed by substrate addition measured after 30 secs
The species entered for data set [9] is Rattus norvegicus.
Description: In vivo inhibition of HPPD in rat assessed dissociation half life for enzyme-compound complex in plasma
The nature of data set [10]: Half life in human plasma at 1 mg/kg.
Data set [11] can be described thus: In vitro half life of rat HPPD complex.
The subject of data set [12] is Homo sapiens. Put plainly: Effect on tyrosine level in plasma in human at 1 mg/kg, po up to 120 hrs (reference value: 0.076 mM). Particulars: in vivo.
The subject of another data set is Fibroblast. Put plainly: Cytotoxicity against human Fibroblast assessed as reduction in cell viability after 24 to 144 hrs by MTT assay. On the technique in general: Formazan colour is commonly taken as a measure of viable cells.
Data set [13] concerns Plasmodium falciparum. Put plainly: Antiparasitic activity against chloroquine-sensitive Plasmodium falciparum. Format: functional.
Data set [14] relates to Plasmodium falciparum. As to the kind of experiment: Antiparasitic activity against chloroquine-resistant Plasmodium falciparum. Format: functional.
Data set [15] concerns the target T1, 4-hydroxyphenylpyruvate dioxygenase. Put plainly: Inhibition of Arabidopsis thaliana HPPD expressed in Escherichia coli JM109 using HPPA as substrate after 10 mins.
Data set [16] deals with T3, 4-hydroxyphenylpyruvate dioxygenase. Put plainly: Inhibition of pig liver HPPD using HPP as substrate after 15 mins.
Data set [17] addresses T1, 4-hydroxyphenylpyruvate dioxygenase. As to the kind of experiment: Inhibition of Arabidopsis thaliana HPPD expressed in Escherichia coli JM105 using HPPA as substrate after preincubated for 15 min followed by substrate addition by HPLC analysis.
The species entered for data set [18] is Homo sapiens. As to the kind of experiment: Inhibition of TAT in human Fibroblasts assessed as reduction in tyrosine level at 0.1 uM after 72 hrs by LC-MS/MS analysis relative to control.
The species entered for data set [19] is Homo sapiens. Put plainly: Inhibition of TAT in human Fibroblasts assessed as reduction in tyrosine level at 10 uM after 72 hrs by LC-MS/MS analysis relative to control.
The test system of data set [20] is Homo sapiens. Put plainly: In vivo inhibition of HPPD in human assessed as blood tyrosine levels at 4 mg/kg measured up to 120 hrs. Format: functional.
A short description of data set [21]: Half life in human plasma at 1 mg/kg administered as solution. The format is ADME, organism-based.
The nature of data set [22]: Half life in human plasma at 1 mg/kg administered as capsule. The format is ADME, organism-based. The note with it: po.
In data set [23] the test system is Rattus norvegicus. Put plainly: In vivo inhibition of HPPD activity in rat assessed as micoL of O2 consumed in liver cytosol at 0.1 to 5 mg/kg/day measured after 90 days (reference value: 91%). The format is functional.
Data set [24] relates to Rattus norvegicus. Put plainly: In vivo inhibition of TAT activity in rat assessed as 4-hydroxyphenylpyruvate formed in liver cytosol at 50 to 100 mg/kg/day measured after 90 days relative to control. Format: functional.
Data set [25] has as its system Rattus norvegicus. Put plainly: In vivo inhibition of HGD activity in rat assessed as micoL of O2 consumed in liver cytosol at 5 to 100 mg/kg/day measured after 90 days relative to control. Format: functional.
The target in data set [26] is T4, 4-hydroxyphenylpyruvate dioxygenase (Daucus carota, UniProt O23920).
T4 sequence (O23920 whole entry): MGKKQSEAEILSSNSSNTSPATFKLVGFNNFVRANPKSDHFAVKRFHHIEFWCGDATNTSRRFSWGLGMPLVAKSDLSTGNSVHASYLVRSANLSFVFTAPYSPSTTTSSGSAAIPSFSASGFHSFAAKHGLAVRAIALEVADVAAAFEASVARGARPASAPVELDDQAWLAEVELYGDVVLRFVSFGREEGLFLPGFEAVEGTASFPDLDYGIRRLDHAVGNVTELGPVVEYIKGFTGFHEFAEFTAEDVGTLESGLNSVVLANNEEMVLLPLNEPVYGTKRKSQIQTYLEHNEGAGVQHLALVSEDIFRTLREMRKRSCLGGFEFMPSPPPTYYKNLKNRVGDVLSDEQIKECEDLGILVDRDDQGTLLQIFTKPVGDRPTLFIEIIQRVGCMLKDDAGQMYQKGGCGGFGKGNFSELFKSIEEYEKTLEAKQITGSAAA
Put plainly: Inhibition of carrot HPPD expressed in Escherichia coli JM105 using HPPA as substrate.

Data set [27] has as its target T5, 4-hydroxyphenylpyruvate dioxygenase (Daucus carota) (UniProt O23920).
T5 sequence (whole entry): T4 sequence (O23920 whole entry)
As to the kind of experiment: Inhibition of carrot HPPD expressed in Escherichia coli JM105 assessed as dissociation half life using HPPA as substrate.

T3 sequence (Q02110 whole entry): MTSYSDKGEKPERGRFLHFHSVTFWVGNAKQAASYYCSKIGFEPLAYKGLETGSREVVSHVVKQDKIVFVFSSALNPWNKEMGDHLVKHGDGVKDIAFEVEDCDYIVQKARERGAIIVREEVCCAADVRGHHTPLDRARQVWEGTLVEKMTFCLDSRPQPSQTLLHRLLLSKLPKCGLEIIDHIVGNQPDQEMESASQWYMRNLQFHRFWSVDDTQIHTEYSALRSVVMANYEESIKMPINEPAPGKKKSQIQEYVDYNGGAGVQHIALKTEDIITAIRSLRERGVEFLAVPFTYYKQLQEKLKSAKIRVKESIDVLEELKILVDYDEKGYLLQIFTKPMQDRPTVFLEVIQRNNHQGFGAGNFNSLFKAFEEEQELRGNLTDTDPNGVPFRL
Sequence of 4-hydroxyphenylpyruvate dioxygenase (Rattus norvegicus) (P32755 whole entry): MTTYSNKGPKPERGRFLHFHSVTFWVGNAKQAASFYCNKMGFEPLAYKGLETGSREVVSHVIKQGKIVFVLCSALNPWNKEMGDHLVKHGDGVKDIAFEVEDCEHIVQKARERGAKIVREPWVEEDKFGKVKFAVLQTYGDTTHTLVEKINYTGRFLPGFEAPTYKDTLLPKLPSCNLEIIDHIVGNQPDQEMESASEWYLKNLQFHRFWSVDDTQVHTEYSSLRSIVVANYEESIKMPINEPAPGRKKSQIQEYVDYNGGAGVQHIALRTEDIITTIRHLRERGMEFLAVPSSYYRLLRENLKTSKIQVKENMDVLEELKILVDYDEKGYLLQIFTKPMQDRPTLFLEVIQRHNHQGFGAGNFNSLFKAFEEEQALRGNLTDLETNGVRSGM

On to `CCCCCCCCCC(=O)C1C(=O)C(C)(C)C(=O)C(C)(C)C1=O`, for which the IC50 – broadly, the concentration that inhibits the measured activity by half – in [1] was 19 nM.
For `Cc1nc2c(C)cccc2cc1C(=O)C1C(=O)CC(C)CC1=O` (stereo unspecified), in data set [2], the Ki (commonly the dissociation constant of the complex between target and ligand, obtained from inhibition or displacement) fell in the range of 7 to 9 nM.
On to `Cc1c(C(=O)c2cnn(C)c2O)ccc(S(C)(=O)=O)c1C1=NOCC1`, for which, in data set [3], the INH stood at 23 nM.
On to `O=C1CCCC(=O)C1Cc1ccccc1[N+](=O)[O-]`, for which, in data set [4], the IC50 is 126000 nM.
Take `O=C1CCCC(=O)C1C(=O)c1ccc(C(F)(F)F)cc1[N+](=O)[O-]` [NITISINONE]: the Activity was more than 2 mM with Rattus norvegicus [5], 0.136 mM in the data set with Homo sapiens [7] and 1.1 mM with Homo sapiens [12]. Further, the T1/2 in the data set with Homo sapiens [6] was found to be 53 h; in the data set listed under Rattus norvegicus [9], 63 h. Further, the inhibition (usually the percentage by which the read-out fell short of the control) in data set [8] worked out at 50%. For the same compound, the half-life – broadly, the time in which the quantity being followed falls by half – in [10] was 53 h; in data set [11], 63 h.
In data set [2], `COc1nc2c(C)cccc2cc1C(=O)C1C(=O)CCCC1=O` had a Ki of 7 to 9 nM.
Consider `Cc1cc(C2C(=O)C(C(=O)c3ccc(Cl)cc3)C(=O)CC2(C)C)on1` (stereo unspecified), for which the Activity in the data set on Fibroblast is recorded as more than 1 mM.
On to `Cc1c(O)c(C(=O)CCc2ccccc2)c2c(c1O)[C@@H]1C3=C(O[C@]1(C(C)C)O2)C(C)(C)C(=O)C(C)(C)C3=O`, for which the IC50 with Plasmodium falciparum [13] turned out to be 400 nM; in the data set with Plasmodium falciparum [14] it was 300 nM.
As for `Cc1nc2c(C)cccc2cc1C(=O)C1C(=O)CCCC1=O`, in data set [2], the Ki fell in the range of 7 to 9 nM.
`O=C1CCCC(=O)C1C(=O)COc1ccc(Cl)cc1` returned a Ki in data set [15] of 31 to 37 nM.
In data set [15], `Cc1ccccc1OCC(=O)C1C(=O)CCCC1=O` had a Ki of 31 to 37 nM.
Compound `O=C(O)C(O)(O)C(F)c1ccccc1` (stereo unspecified) returned an IC50 in data set [16] of 10000 nM.
Turning to `CC1(C)C(=O)C(C(=O)CCc2ccccc2)C(=O)C(C)(C)C1=O`, in [1], half-maximal inhibition (IC50) required 750 nM.
In data set [15], `O=C1CCCC(=O)C1C(=O)COc1ccc([N+](=O)[O-])cc1` displayed a Ki of 31 to 37 nM.
Turning to `O=C1CCCC(OC(=O)C2CC2)=C1Cl`, inhibition in data set [4] was half-maximal at 15 nM (IC50).
As for `O=C1C[C@@H](c2ccccc2)Oc2cc(O)cc(O)c21` [PINOCEMBRIN], in data set [17], half-maximal inhibition (IC50) was put at 73000 nM.
For `CC1(C)CC(=O)C(C(=O)c2ccc([N+](=O)[O-])cc2Cl)C(=O)C1`, the inhibition in the data set listed under Homo sapiens [18] worked out at 7%. The Activity in the data set with Fibroblast is on record as more than 1 mM.
Turning to `CS(=O)(=O)c1ccc(C(=O)C2C(=O)CCCC2=O)c([N+](=O)[O-])c1` [MESOTRIONE], in the data set listed under Homo sapiens [19], the inhibition was 14%. The Activity in the data set with Homo sapiens [20] was less than 0.5 mM. Also, the half-life in data set [21] and in [22] was 1 h each time.
Compound `Cc1cccc2cc(C(=O)C3C(=O)CCCC3=O)c(C#N)nc12` gave a Ki in data set [2] of 7 to 9 nM.
In the case of `O=C1CCCC(OC(=O)C2CC2)=C1Br`, inhibition in data set [4] was half-maximal at 28 nM (IC50).
In turn, `O=C1CCCC(=O)C1C(=O)COc1ccccc1Cl` returned a Ki in data set [15] of 31 to 37 nM.
Consider `Cc1cccc2cc(C(=O)C3C(=O)CC(C)CC3=O)c(C#N)nc12` (stereo unspecified), for which the Ki in [2] lay within 7 to 9 nM.
Take `COc1nc2c(C)cccc2cc1C(=O)C1C(=O)CC(C)CC1=O` (stereo unspecified): the Ki in data set [2] is 7 to 9 nM.
Compound `Cc1c(C(=O)c2cn[nH]c2O)ccc(S(C)(=O)=O)c1C1=NOCC1` registered an INH in [3] of 600 nM.
Regarding `CC(=O)C1=C(O)C=C2Oc3c(C(C)=O)c(O)c(C)c(O)c3[C@@]2(C)C1=O` [(+)-USNIC ACID], half-maximal inhibition in data set [17] (IC50) was put at 70 nM.
In turn, `O=C1CCCCC1C(=O)c1ccccc1[N+](=O)[O-]` (stereo unspecified) came in with an IC50 in [4] of 700 nM.
In turn, `CS(=O)(=O)c1ccc(C(=O)C2C(=O)CCCC2=O)c(Cl)c1COCC(F)(F)F` [TEMBOTRIONE] yielded a Ki in data set [15] of 13 nM.
For `CCn1c(=O)n(-c2ccccc2C)c(=O)c2cc(C(=O)C3C(=O)CCCC3=O)ccc21`, the Ki in data set [2] is 5 nM.
For `CS(=O)(=O)c1ccc(C(=O)C2C(=O)CCCC2=O)c(Cl)c1` [SULCOTRIONE], the “inhibition (INH)” value with Rattus norvegicus [23] was 96%; in the data set with Rattus norvegicus [24] it was 43 - 175%; with Rattus norvegicus [25], 29 - 46%.
Take `CS(=O)(=O)c1cc(C(F)(F)F)ccc1C(=O)C(C#N)C(=O)C1CC1` (stereo unspecified): the affinity in [26], expressed as Kd, was 6 nM. Also, the T1/2 in data set [27] came to 2 h.
Turning to `CC(C)CC(=O)C1C(=O)C(C)(C)C(=O)C(C)(C)C1=O`, half-maximal inhibition in data set [1] (IC50) was put at 11800 nM.
